Data from patent US20250090541A1, “Methods for Treating Neurodegenerative Disorders” (Praetego Inc, priority 2022, published 2025).

Key:
[1] = Oral pharmacokinetics and tissue distribution of PTG-630 (blood brain barrier penetration); type: in vivo, Sprague-Dawley rats; set-up: AUC(0-t) / AUC(0-inf): concentration or dose not given beside the values; settings: for concentration at 0.5 h: 0.50 h
From the text: This was a study in male Sprague-Dawley rats. The primary objective was to assess the IV and PO pharmacokinetics of PTG-630. The secondary objectives were to assess tissue distribution after oral administration of PTG-630 (free base form) and the renal excretion, hepatic extraction efficiency and bioavailability of PTG-630.
Twelve non-cannulated animals were arbitrarily assigned to groups upon arrival and housed together throughout the experiment. The animals were acclimated to their designated housing for at least 24 hours before the first day of dosing. PTG-630 was formulated in 0.5% methyl cellulose and 0.1% Tween 20 in water for injection and administered to animals by mouth (PO) with blood and tissue samples collected at predetermined time points. Right thigh muscle, liver, brain, right sciatic nerve, and right kidney were collected at the terminal time points. These samples were collected and placed into individually labeled tubes and frozen at −20° C. Tissues samples were analyzed for concentration of PTG-630.

human tau mice [2] = assay: Barnes maze long-term memory, human tau mice; type: in vivo; settings: by week 23 of treatment (between week 19 and 23), male and female combined
From the text: (§1) The human tau mouse is a model of sporadic dementia that expresses human non-mutant tau (6 isoforms) in the absence of endogenous mouse tau. The model develops age-associated pathology, with hyperphosphorylated tau detected in cell bodies and dendrites by 3 months of age (Andorfer et al., 2003; J Neurochem 86, 582-590, doi:10.1046/j.1471-4159.2003.01879.x). These mice display abnormal spatial learning by 6 months of age and impaired learning in the Morris water maze with memory loss by 12 months of age, as well as memory deficits in the Barnes maze by 6 months of age (Marquez et al, 2021).
(§2) Female and male human tau mice (Jax #005491) were treated daily for 25 weeks with PTG-630 trihydrochloride at 1 and 5 mg/kg in drinking water starting at 10 weeks of age (before cognitive deficits appear).
(§3) Learning and memory were assessed using the Barnes maze test and the object recognition test at 6-8, 12-13, 18-19 and 24-25 weeks. Corneal nerves were imaged by corneal confocal microscopy (CCM) at week 6, 9, 12, 18 and 25. Data represent male and female results combined, mean±sem.
Using the Barnes maze test, long-term memory was assessed between week 13 and 19 and between week 19 and 23 of treatment (FIG. 1A, B).

human tau mice [3] = assay: Object recognition test, human tau mice; type: in vivo
From the text: as §1, §2, §3

Drebrin = assay: Western blot of hippocampus, human tau mice: Drebrin; type: in vivo; settings: 12 weeks of treatment in drinking water
From the text: (§4) Mouse Hippocampus were processed for Western blotting analysis of (A) Drebrin (actin binding protein in dendritic spines, role in neuronal growth, a decrease=contributing factor in the pathogenesis of memory disturbance), (B) PSD95 (a post-synaptic protein, role in the regulation of excitatory synapse maturity), and (C) NeuN (neuronal nuclear antigen, biomarker for neurons, decrease=neuronal loss) (FIG. 3).

NeuN = assay: Western blot of hippocampus, human tau mice: NeuN; type: in vivo; settings: 5 mg/kg
Protocol: as §2, §4

human tau mice [4] = assay: Thermal response to heat (hypoalgesia), human tau mice; type: in vivo
Protocol: as §2
Tactile and thermal responses, measures of associated damage to the peripheral nervous system (PNS), were assessed at 8, 14, 18 and 24 weeks. hTau mice developed significant tactile allodynia measured with manual von Frey filaments at the 14 weeks time point (FIG. 4).
Human tau mice develop significant hypoalgesia (FIG. 5).

htau mice [5] = assay: Intraepidermal nerve fiber (IENF) quantification in footskin, htau mice; type: in vivo
From the text: A standard measure of associated PNS damage to neuronal tissue and its amelioration is IENF, seen alongside changes in the CNS. […] The amelioration of these PNS effects confirms that PTG-630 readily enters and targets neuronal tissue, whether in the brain or elsewhere in the body.

htau mice [6] = assay: Motor nerve conduction velocity (NCV), htau mice; type: in vivo; settings: htau mice with or without treatment, 8, 16 and 25 weeks
Protocol: as §2
Motor nerve conduction velocity (NCV) was measured at 8, 16 and 25 weeks after treatment.

[7] = male, Sprague-Dawley, rat, brain, po
[8] = male, Sprague-Dawley, rat, kidney, po
[9] = male, Sprague-Dawley, rat, liver, po
[10] = male, Sprague-Dawley, rat, muscle, po
[11] = male, Sprague-Dawley, rat, plasma, po
[12] = male, Sprague-Dawley, rat, sciatic nerve, po
[13] = male, Sprague-Dawley, rat, Brain, PO, mean
[14] = male, Sprague-Dawley, rat, Kidney, PO, mean
[15] = male, Sprague-Dawley, rat, Liver, PO, mean
[16] = male, Sprague-Dawley, rat, Muscle, PO, mean
[17] = male, Sprague-Dawley, rat, Plasma, PO, mean
[18] = male, Sprague-Dawley, rat, Sciatic Nerve, PO, mean

SMILES: Cc1ncc(CN2CCOCC2)c(-c2ncc[nH]2)c1O [PTG-630, 4-(1H-imidazol-2-yl)-2-methyl-5-(morpholinomethyl)pyridin-3-ol]
- Concentration ([1]; Brain, 24 h, PO, mean): BLQ
- % Extrap ([1]; Brain, PO): 23.7%
- Concentration ([1]; Kidney, 24 h, PO, mean): BLQ
- % Extrap ([1]; Kidney, PO): 14.0%
- Concentration ([1]; Liver, 24 h, PO, mean): BLQ
- % Extrap ([1]; Liver, PO): 5.72%
- Concentration ([1]; Muscle, 24 h, PO, mean): BLQ
- % Extrap ([1]; Muscle, PO): 30.7%
- % Extrap ([1]; Plasma, PO): 1.13%
- Concentration ([1]; Sciatic Nerve, 24 h, PO, mean): BLQ
- detectability in tissues 24 hours post dose ([1]; any tissue except plasma, 24 hours post dose): not detectable
- Half-life in brain relative to plasma ([1]; brain vs plasma): 1.3 times
- quantifiability in tested tissues ([1]; liver, kidney, brain, sciatic nerve, muscle): quantifiable in all tested tissues
- AUC(0-inf) [1, 7]: 6720 ng·h/mL
- AUC(0-t) [1, 7]: 5130 ng·h/mL
- Cmax [1, 7]: 1990 ng/mL
- Tmax [1, 7]: 1 h
- half-life [1, 7]: 4.53 h
- AUC(0-inf) [1, 8]: 11400 ng·h/mL
- AUC(0-t) [1, 8]: 9770 ng·h/mL
- Cmax [1, 8]: 3880 ng/mL
- Tmax [1, 8]: 1 h
- AUC(0-inf) [1, 9]: 22000 ng·h/mL
- AUC(0-t) [1, 9]: 20700 ng·h/mL
- Cmax [1, 9]: 6350 ng/mL
- Tmax [1, 9]: 1 h
- AUC(0-inf) [1, 10]: 3820 ng·h/mL
- AUC(0-t) [1, 10]: 2650 ng·h/mL
- Cmax [1, 10]: 1030 ng/mL
- Tmax [1, 10]: 1 h
- AUC(0-inf) [1, 11]: 8700 ng·h/mL
- AUC(0-t) [1, 11]: 8600 ng·h/mL
- Cmax [1, 11]: 1160 ng/mL
- Tmax [1, 11]: 1 h
- AUC(0-t) [1, 12]: 6550 ng·h/mL
- Cmax [1, 12]: 1830 ng/mL
- Tmax [1, 12]: 1 h
- Kp ([1]; male, Sprague-Dawley, rat, selected tissues vs plasma, po, read-out: exposure in selected tissues relative to exposure in plasma): 3 to 5
- concentration at 0.5 h [1, 13]: 1430 ng/mL
- concentration at 1 h [1, 13]: 1990 ng/mL
- concentration at 2 h [1, 13]: 450 ng/mL
- concentration at 4 h [1, 13]: 1000 ng/mL
- concentration at 6 h [1, 13]: 244 ng/mL
- concentration at 0.5 h [1, 14]: 2230 ng/mL
- concentration at 1 h [1, 14]: 3880 ng/mL
- concentration at 2 h [1, 14]: 1510 ng/mL
- concentration at 4 h [1, 14]: 1520 ng/mL
- concentration at 6 h [1, 14]: 466 ng/mL
- concentration at 0.5 h [1, 15]: 5720 ng/mL
- concentration at 1 h [1, 15]: 6350 ng/mL
- concentration at 2 h [1, 15]: 5080 ng/mL
- concentration at 4 h [1, 15]: 2420 ng/mL
- concentration at 6 h [1, 15]: 647 ng/mL
- concentration at 0.5 h [1, 16]: 775 ng/mL
- concentration at 1 h [1, 16]: 1030 ng/mL
- concentration at 2 h [1, 16]: 290 ng/mL
- concentration at 4 h [1, 16]: 401 ng/mL
- concentration at 6 h [1, 16]: 245 ng/mL
- concentration at 0.5 h [1, 17]: 930 ng/mL
- concentration at 1 h [1, 17]: 1160 ng/mL
- concentration at 2 h [1, 17]: 274 ng/mL
- concentration at 4 h [1, 17]: 794 ng/mL
- concentration at 6 h [1, 17]: 510 ng/mL
- concentration at 24 h ([1]; male, Sprague-Dawley, rat, Plasma, 24 h, PO, mean): 18.4 ng/mL
- concentration at 0.5 h [1, 18]: 1660 ng/mL
- concentration at 1 h [1, 18]: 1830 ng/mL
- concentration at 2 h [1, 18]: 510 ng/mL
- concentration at 4 h [1, 18]: 989 ng/mL
- concentration at 6 h [1, 18]: 690 ng/mL
- Tmax ([1]; male, Sprague-Dawley, rat, tissues, comparable to plasma, PO): 1 h
- long-term memory impairment in Barnes maze (human tau mice [2]): significantly prevented
- short term episodic memory deficits in Object recognition test (human tau mice [3]; 1 mg/kg in drinking water): partially ameliorated
- short term episodic memory deficits in Object recognition test (human tau mice [3]; 5 mg/kg in drinking water for 17 weeks): significantly alleviated
- short-term episodic memory (recognition index) (human tau mice [3]; FIG. 2 legend, dose not stated): partially prevented
- reduced drebrin levels in hippocampus (Drebrin): significantly (p<0.05) ameliorated
- neuronal loss (NeuN) in hippocampus (NeuN): partially alleviated
- thermal hypoalgesia (human tau mice [4]; 1 mg/kg, remained for the rest of the study): significant by 14 weeks of treatment
- thermal hypoalgesia (human tau mice [4]; 5 mg/kg, by 8 weeks of treatment and for the duration of the study): significantly ameliorated
- thermal responses to heat (human tau mice [4]; FIG. 5 legend, after 24 weeks of treatment): amelioration of hypoalgesia
- IENF in footskin (htau mice [5]; female mice): No difference was noted
- decreased IENF in footskin (htau mice [5]; male mice, 1 mg/kg): significantly (p<0.05) ameliorated
- Nerve conduction velocity (htau mice [6]): not significantly different from control levels
